According to publication PMC7613998, “Development of selective inhibitors of phosphatidylinositol 3-kinase C2α” (Nature Chemical Biology, 2022):
Where two headings read alike, the source gives them in different places.

How the values were obtained:
Experiment in all cases: biochemical
MAP3K8 (COT) = MAP3K8 (COT) (Homo sapiens, UniProt P41279); design: SelectScreen Z'-LYTE purified kinase panel, per cent inhibition, mean of two points; conditions: (μM)=100
DCAMKL1 (DCLK1) = target: T1, DCAMKL1 (DCLK1) (Homo sapiens, UniProt O15075); design: SelectScreen Z'-LYTE purified kinase panel, per cent inhibition, mean of two points; conditions: (μM)=Km app
T1 sequence (O15075 1-740): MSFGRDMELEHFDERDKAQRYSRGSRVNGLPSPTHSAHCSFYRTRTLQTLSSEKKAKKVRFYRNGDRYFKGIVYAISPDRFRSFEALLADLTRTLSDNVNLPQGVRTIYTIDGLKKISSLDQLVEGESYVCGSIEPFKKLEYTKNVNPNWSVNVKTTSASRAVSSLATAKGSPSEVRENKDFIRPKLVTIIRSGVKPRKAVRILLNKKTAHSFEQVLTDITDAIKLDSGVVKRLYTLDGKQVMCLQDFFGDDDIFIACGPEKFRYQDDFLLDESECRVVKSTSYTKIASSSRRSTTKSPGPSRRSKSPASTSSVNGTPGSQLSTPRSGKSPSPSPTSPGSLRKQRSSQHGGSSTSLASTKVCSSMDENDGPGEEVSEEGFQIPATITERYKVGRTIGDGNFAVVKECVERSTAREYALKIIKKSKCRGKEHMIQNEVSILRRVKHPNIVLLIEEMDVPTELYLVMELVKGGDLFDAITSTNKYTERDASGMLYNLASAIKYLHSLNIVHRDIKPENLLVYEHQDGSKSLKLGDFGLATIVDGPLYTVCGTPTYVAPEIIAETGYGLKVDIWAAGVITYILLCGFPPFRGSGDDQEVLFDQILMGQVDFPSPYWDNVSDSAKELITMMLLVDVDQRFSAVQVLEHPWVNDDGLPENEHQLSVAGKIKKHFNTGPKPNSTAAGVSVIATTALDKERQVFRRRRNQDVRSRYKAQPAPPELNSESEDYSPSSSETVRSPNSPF

ROCK2 = ROCK2 (Homo sapiens, UniProt O75116); design: SelectScreen Z'-LYTE purified kinase panel, per cent inhibition, mean of two points; conditions: (μM)=Km app
Sequence of ROCK2 (O75116 whole entry): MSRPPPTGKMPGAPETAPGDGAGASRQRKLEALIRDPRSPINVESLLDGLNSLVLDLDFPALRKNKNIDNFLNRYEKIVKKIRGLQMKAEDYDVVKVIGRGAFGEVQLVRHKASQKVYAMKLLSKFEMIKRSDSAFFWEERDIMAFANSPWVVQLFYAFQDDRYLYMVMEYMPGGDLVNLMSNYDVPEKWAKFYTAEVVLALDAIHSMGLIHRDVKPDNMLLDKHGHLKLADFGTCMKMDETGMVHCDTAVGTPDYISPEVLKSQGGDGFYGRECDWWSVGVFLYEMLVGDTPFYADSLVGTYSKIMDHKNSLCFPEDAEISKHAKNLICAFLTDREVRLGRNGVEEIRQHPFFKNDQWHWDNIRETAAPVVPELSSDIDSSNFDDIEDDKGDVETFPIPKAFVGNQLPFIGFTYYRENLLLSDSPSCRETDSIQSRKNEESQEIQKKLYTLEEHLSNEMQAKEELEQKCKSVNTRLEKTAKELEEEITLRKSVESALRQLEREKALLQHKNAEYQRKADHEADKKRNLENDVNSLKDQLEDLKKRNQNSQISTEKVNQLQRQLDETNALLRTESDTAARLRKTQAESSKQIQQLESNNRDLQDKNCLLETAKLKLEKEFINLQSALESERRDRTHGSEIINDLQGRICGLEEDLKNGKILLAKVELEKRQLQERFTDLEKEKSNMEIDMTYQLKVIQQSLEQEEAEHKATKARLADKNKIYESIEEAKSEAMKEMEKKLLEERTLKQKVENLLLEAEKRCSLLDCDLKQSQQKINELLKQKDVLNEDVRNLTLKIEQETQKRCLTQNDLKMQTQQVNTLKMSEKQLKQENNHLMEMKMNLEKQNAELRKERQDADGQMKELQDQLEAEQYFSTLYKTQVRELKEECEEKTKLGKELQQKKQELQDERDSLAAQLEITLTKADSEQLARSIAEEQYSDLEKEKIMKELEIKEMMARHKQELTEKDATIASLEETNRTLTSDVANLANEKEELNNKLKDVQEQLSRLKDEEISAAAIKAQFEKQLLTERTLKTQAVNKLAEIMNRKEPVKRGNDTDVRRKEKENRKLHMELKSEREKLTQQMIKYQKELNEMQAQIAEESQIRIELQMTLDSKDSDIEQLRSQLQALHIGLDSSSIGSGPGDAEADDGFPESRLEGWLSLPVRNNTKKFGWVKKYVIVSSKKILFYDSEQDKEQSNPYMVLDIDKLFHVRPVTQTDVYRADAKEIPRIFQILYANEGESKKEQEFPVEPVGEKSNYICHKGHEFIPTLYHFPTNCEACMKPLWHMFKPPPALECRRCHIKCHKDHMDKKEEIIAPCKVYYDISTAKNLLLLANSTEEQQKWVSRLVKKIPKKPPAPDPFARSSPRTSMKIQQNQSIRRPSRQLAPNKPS

CHEK1 (CHK1) = target: T2, CHEK1 (CHK1) (Homo sapiens, UniProt O14757); design: SelectScreen Z'-LYTE purified kinase panel, per cent inhibition, mean of two points; conditions: (μM)=Km app
T2 sequence (O14757 1-476): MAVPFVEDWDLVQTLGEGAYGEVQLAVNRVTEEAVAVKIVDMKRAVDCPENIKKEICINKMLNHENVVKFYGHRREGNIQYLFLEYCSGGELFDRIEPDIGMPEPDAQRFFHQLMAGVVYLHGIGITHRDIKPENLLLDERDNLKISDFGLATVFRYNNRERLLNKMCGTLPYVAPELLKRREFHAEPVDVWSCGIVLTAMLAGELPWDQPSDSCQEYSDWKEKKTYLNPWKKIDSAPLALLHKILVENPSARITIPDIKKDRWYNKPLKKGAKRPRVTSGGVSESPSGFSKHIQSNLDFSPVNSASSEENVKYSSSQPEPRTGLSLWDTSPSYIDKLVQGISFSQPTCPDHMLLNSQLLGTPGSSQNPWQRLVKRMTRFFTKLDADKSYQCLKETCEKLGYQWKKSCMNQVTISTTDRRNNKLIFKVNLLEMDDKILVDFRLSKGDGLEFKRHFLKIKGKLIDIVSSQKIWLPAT

SRC = SRC (Homo sapiens, UniProt P12931); design: SelectScreen Z'-LYTE purified kinase panel, per cent inhibition, mean of two points; conditions: (μM)=Km app
Sequence of SRC (P12931 whole entry): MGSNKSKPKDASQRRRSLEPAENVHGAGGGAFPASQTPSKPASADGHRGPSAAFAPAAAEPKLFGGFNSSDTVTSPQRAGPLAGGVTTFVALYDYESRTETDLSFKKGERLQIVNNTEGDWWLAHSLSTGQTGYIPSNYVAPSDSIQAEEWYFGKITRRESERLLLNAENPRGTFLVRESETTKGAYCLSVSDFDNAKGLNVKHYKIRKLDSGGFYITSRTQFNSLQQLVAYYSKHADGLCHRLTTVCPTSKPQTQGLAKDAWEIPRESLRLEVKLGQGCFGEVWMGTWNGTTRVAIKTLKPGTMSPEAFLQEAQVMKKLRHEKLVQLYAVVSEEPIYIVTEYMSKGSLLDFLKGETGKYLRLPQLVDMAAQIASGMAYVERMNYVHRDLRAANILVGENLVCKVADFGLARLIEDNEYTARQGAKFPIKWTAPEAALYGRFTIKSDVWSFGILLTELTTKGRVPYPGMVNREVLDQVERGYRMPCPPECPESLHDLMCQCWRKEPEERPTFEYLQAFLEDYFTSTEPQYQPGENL

MAPKAPK5 (PRAK) = target: T3, MAPKAPK5 (PRAK) (Homo sapiens, UniProt Q8IW41); design: SelectScreen Z'-LYTE purified kinase panel, per cent inhibition, mean of two points; conditions: (μM)=Km app
T3 sequence (Q8IW41 1-473): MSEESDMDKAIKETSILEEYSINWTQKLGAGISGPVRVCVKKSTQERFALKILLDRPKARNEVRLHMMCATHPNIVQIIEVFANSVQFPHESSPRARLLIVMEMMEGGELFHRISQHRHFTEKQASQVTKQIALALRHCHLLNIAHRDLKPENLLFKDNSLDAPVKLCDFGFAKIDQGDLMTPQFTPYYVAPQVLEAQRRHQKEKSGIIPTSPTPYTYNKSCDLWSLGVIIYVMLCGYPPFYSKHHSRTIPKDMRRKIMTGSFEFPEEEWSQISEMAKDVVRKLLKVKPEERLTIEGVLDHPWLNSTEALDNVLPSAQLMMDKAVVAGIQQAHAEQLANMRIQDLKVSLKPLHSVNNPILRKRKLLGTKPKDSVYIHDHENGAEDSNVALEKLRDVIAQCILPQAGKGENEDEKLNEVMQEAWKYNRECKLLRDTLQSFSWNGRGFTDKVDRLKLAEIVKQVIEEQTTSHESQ

ABL1 E255K = ABL1 E255K (Homo sapiens, UniProt P00519, E255K); design: SelectScreen Z'-LYTE purified kinase panel, per cent inhibition, mean of two points; conditions: (μM)=Km app
Sequence of ABL1 E255K (P00519 whole entry E255K): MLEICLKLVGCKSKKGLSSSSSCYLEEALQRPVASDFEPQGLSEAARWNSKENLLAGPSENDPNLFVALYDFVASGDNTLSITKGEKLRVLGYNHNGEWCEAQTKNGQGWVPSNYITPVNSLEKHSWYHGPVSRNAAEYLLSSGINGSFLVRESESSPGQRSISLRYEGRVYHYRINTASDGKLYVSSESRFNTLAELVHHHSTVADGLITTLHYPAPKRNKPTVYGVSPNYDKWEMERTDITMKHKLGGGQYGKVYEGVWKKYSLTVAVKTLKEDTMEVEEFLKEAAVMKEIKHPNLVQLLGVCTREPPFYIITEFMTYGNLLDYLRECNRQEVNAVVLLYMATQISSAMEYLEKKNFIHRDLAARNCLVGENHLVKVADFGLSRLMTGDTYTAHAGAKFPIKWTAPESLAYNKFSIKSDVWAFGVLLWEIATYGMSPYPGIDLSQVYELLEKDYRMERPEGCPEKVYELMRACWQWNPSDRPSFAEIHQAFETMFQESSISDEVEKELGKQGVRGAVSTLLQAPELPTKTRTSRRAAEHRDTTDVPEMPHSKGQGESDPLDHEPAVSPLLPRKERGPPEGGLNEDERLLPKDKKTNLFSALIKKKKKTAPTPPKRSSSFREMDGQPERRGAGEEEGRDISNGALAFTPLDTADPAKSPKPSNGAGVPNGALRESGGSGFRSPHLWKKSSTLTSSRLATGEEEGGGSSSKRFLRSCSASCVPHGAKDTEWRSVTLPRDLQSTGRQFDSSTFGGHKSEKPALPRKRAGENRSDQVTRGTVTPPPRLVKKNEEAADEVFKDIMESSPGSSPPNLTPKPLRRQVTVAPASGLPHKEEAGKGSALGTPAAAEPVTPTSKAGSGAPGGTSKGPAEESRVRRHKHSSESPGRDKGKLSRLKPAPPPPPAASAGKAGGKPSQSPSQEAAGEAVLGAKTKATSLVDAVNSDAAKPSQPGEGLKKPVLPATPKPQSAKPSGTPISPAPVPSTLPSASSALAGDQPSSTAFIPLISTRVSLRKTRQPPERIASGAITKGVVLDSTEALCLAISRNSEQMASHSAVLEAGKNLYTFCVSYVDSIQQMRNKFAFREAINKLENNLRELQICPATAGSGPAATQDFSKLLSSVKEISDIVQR

PI3KC2γ = target: T4, PI3KC2γ (Homo sapiens, UniProt O75747); design: ADP-Glo lipid kinase assay with liver PI substrate, luminescence
T4 construct: gene PIK3C2G
T4 sequence (O75747 whole entry): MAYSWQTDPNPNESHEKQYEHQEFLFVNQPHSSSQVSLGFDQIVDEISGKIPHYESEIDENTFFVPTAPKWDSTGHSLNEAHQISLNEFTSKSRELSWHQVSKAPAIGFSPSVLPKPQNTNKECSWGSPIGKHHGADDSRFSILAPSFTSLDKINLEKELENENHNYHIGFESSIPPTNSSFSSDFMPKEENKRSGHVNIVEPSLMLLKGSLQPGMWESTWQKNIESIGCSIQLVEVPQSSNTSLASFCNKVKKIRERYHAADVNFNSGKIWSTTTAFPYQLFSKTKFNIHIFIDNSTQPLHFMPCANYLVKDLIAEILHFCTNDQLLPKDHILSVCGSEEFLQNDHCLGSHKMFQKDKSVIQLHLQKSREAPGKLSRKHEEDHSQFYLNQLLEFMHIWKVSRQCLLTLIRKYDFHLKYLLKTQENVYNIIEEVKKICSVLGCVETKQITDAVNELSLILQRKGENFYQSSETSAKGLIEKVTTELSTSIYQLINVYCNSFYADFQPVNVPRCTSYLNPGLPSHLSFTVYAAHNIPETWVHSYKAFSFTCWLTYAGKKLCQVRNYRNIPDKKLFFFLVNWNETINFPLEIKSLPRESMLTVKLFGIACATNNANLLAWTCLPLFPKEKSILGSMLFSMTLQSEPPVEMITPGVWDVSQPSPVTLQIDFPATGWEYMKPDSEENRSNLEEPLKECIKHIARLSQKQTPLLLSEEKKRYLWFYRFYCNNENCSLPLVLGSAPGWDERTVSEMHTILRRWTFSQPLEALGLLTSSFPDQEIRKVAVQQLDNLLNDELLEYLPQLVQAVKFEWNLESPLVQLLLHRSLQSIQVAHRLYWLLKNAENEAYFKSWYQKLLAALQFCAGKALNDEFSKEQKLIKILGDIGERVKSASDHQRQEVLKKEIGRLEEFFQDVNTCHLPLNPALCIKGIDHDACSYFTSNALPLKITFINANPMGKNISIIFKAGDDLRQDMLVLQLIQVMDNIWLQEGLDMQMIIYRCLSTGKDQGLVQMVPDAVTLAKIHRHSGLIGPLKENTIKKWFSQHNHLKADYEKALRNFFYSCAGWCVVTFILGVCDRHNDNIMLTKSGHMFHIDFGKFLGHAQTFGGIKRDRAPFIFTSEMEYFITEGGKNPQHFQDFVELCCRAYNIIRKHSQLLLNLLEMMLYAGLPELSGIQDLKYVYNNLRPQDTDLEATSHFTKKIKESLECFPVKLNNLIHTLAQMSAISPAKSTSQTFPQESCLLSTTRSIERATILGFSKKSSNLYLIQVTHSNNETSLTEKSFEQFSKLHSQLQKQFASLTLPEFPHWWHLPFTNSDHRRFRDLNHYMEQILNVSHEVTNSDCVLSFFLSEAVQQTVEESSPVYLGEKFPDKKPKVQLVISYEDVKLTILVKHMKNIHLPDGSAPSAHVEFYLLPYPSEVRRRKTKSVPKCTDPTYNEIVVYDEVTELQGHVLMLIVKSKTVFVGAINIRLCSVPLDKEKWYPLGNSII

PI3KC2β = target: T5, PI3KC2β (Homo sapiens, UniProt O00750); design: ADP-Glo lipid kinase assay with liver PI substrate, luminescence; conditions: read-out: PITCOIN3 (IC50)
T5 construct: gene PIK3C2B

Sequence of MAP3K8 (COT) (P41279 whole entry): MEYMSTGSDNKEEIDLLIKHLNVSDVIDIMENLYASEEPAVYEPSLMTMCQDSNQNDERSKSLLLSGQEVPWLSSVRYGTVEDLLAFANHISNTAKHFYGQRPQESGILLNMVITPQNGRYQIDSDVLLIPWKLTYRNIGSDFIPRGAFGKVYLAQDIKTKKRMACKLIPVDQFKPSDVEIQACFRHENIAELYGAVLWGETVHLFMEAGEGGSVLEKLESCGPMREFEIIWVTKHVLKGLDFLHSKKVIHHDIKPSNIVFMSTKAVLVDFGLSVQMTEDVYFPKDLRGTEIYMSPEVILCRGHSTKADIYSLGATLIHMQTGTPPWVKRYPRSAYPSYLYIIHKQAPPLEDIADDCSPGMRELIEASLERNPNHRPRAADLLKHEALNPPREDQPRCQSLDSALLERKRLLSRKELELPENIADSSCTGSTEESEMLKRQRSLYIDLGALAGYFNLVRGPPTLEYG

Structure (SMILES)	inhibition at 1 µM (MAP3K8 (COT))	inhibition at 3 µM (MAP3K8 (COT))	inhibition at 10 µM (MAP3K8 (COT))	inhibition at 1 µM (DCAMKL1 (DCLK1))	inhibition at 3 µM (DCAMKL1 (DCLK1))	inhibition at 10 µM (DCAMKL1 (DCLK1))	inhibition at 1 µM (ROCK2)	inhibition at 3 µM (ROCK2)	inhibition at 10 µM (ROCK2)	inhibition at 1 µM (CHEK1 (CHK1))	inhibition at 3 µM (CHEK1 (CHK1))	inhibition at 10 µM (CHEK1 (CHK1))	inhibition at 1 µM (SRC)	inhibition at 3 µM (SRC)	inhibition at 10 µM (SRC)	inhibition at 1 µM (MAPKAPK5 (PRAK))	inhibition at 3 µM (MAPKAPK5 (PRAK))	inhibition at 10 µM (MAPKAPK5 (PRAK))	inhibition at 1 µM (ABL1 E255K)	inhibition at 3 µM (ABL1 E255K)	also measured
O=C(CSc1nc2nccnc2c(=O)n1CCc1ccccc1)Nc1nccs1 [compound 1, PITCOIN1]	1.68%	-2.27%	4.32%	-1.36%	-3.92%	1.03%	2.33%	1.58%	5.34%	-13.5%	-11.6%	-3.01%	8.59%	3.7%	9.6%	-1.38%	1.26%	0.194%	-2.31%	-1.35%	inhibition at 10 µM (ABL1 E255K): -2.49%
O=C(CSc1nc2nccnc2c(=O)n1CCc1ccccc1)Nc1nc(-c2cccc(O)c2)cs1 [compound 2, PITCOIN2]																					IC50 (PI3KC2γ; read-out: PITCOIN2 (IC50)): > 10 µM
CS(=O)(=O)Nc1cccc(-c2csc(NC(=O)CSc3nc4nccnc4c(=O)n3CCc3ccccc3)n2)c1 [compound 3, PITCOIN3]	2.37%	11.4%	4.89%	-7.05%	-11.7%	13.7%	7.17%	-3.73%	2.1%	-7.7%	-2.83%	-11.2%	9.83%	12.2%	7.36%	-3.78%	2.14%	-2.49%	-1.49%	2.48%	IC50 (PI3KC2γ; read-out: PITCOIN3 (IC50)): > 10 µM; inhibition at 10 µM (ABL1 E255K): -1.01%; IC50 (PI3KC2β): > 10 µM
